Earlier results in patent US11160765B2, “Compositions and methods of treating fungal infections of the nails” (KBR Incorporated, priority 2018, dated 2021).

System: Candida albicans

Structure (SMILES)	proteinase, phospholipase secretion, and dimorphism in Candida albicans
C=CCSCC=C [diallyl sulphide (DAS), diallyl sulphide]	significantly inhibit
C=CCSSCC=C [diallyl disulphide (DADS0, diallyl disulphide]	significantly inhibit
